Measurements taken from patent publication US10294202B2, “Pyrrolidinones as herbicides” (FMC Corporation, priority 2013, dated 2019).

Legend:
barnyardgrass = experiment: Test A pre-/postemergence herbicide test; assay type: in vivo, Echinochloa crus-galli
Method in brief: (§1)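 Planted in loam–sand blend; treated the same day preemergence by directed soil spray, while separately grown plants at one- to two-leaf stage got postemergence spray. Compared visually with untreated controls after approximately 10 days; 100 means complete control.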

pigweed = experiment: Test A pre-/postemergence herbicide test; assay type: in vivo, Amaranthus retroflexus
Method in brief: as §1

corn [1] = experiment: Test A pre-/postemergence herbicide test; assay type: in vivo, Zea mays
Method in brief: as §1

ryegrass, Italian = experiment: Test C pre-/postemergence herbicide test; assay type: in vivo, Lolium multiflorum
Method in brief: (§2)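 Test compounds, formulated in a surfactant-containing non-phytotoxic solvent blend, are applied to seeded loam/sand soil (preemergence) and to young plants at the 1- to 4-leaf stage in peat-based medium (postemergence). Plants stay 13 to 15 days under greenhouse conditions, then are scored visually relative to controls, 0 = no effect, 100 = complete control.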

galium = experiment: Test C pre-/postemergence herbicide test; assay type: in vivo, Galium aparine
Method in brief: as §2

corn [2] = experiment: Test C pre-/postemergence herbicide test; assay type: in vivo, Zea mays
Method in brief: as §2

foxtail, giant = experiment: Test C pre-/postemergence herbicide test; assay type: in vivo, Setaria faberii
Method in brief: as §2

ragweed = experiment: Test C pre-/postemergence herbicide test; assay type: in vivo, Ambrosia elatior
Method in brief: as §2

soybean = experiment: Test C pre-/postemergence herbicide test; assay type: in vivo, Glycine max
Method in brief: as §2

oat, wild = experiment: Test C pre-/postemergence herbicide test; assay type: in vivo, Avena fatua
Text: Seeds of plant species selected from blackgrass (Alopecurus myosuroides), ryegrass, Italian (Italian ryegrass, Lolium multiflorum), wheat (winter wheat, Triticum aestivum), galium (catchweed bedstraw, Galium aparine), corn (Zea mays), crabgrass, large (large crabgrass, Digitaria sanguinalis), foxtail, giant (giant foxtail, Setaria faberii), johnsongrass (Sorghum halepense), lambsquarters (Chenopodium album), morningglory (Ipomoea coccinea), nutsedge, yellow (yellow nutsedge, Cyperus esculentus), pigweed (Amaranthus retroflexus), ragweed (common ragweed, Ambrosia elatior), soybean (Glycine max), barnyardgrass (Echinochloa crus-galli), oilseed rape (Brassica napus), waterhemp (common waterhemp, Amaranthus rudis), kochia (Kochia scoparia), oat, wild (wild oat, Avena fatua), surinam grass (Brachiaria decumbens), foxtail, green (green foxtail, Setaria viridis), goosegrass (Eleusine indica), bromegrass, downy (downy bromegrass, Bromus tectorum), nightshade (eastern black nightshade, Solanum ptycanthum), cocklebur (common cocklebur, Xanthium strumarium), cupgrass, woolly (woolly cupgrass, Eriochloa villosa), bermudagrass (Cynodon dactylon), sunflower, (common oilseed sunflower, Helianthus annuus), Russian thistle (Salsola kali) and velvetleaf (Abutilon theophrasti) were planted into a blend of loam soil and sand and treated preemergence with test chemicals formulated in a non-phytotoxic solvent mixture which included a surfactant. At the same time, plants selected from these crop and weed species and also barley (winter barley, Hordeum vulgare), […]), chickweed (common chickweed, Stellaria media), deadnettle (henbit deadnettle, Lamium amplexicaule), and canarygrass (littleseed canarygrass, Phalaris minor) were planted in pots containing Redi-Earth® planting medium (Scotts Company, 14111 Scottslawn Road, Marysville, Ohio 43041) comprising spaghnum peat moss, vermiculite, wetting agent and starter nutrients and treated with postemergence applications of test chemicals formulated in the same manner. Plants ranged in height from 2 to 18 cm (1- to 4-leaf stage) for postemergence treatments. Treated plants and controls were maintained in a greenhouse for 13 to 15 days, after which time all species were compared to controls and visually evaluated. Plant response ratings, summarized in Table C, are based on a scale of 0 to 100 where 0 is no effect and 100 is complete control. A dash (-) response means no test result.

sedge, umbrella = experiment: Test B flooded paddy test; assay type: in vivo, Cyperus difformis; conditions: 500 g ai/ha, Flood; scale of 0 to 100 where 0 is no effect and 100 is complete control
Method in brief: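 Visual ratings from 0, meaning no effect, up to 100, meaning complete control, were made by comparison with untreated controls 13 to 15 days after treatment. Test compounds went straight into floodwater standing 3 cm over the soil of pots holding 2-leaf seedlings.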

[3] = Postemergence, 125 g ai/ha, 0 to 100 scale, 0 no effect, 100 complete control
[4] = Postemergence, 500 g ai/ha, 0 to 100 scale (0 no effect, 100 complete control)
[5] = Preemergence, 125 g ai/ha, visual rating on 0 to 100 scale (0 no effect, 100 complete control)
[6] = preemergence, 500 g ai/ha, 0 to 100 scale
[7] = Preemergence, 62 g ai/ha, scale 0 to 100
[8] = Preemergence, 31 g ai/ha, scale 0 to 100 (0 no effect, 100 complete control)
[9] = Preemergence, 125 g ai/ha, scale 0 to 100 (0 no effect, 100 complete control)
[10] = Preemergence, 250 g ai/ha, scale 0 to 100 (0 no effect, 100 complete control)
[11] = 125 g ai/ha, visual rating, 0 to 100 scale, 0 no effect, 100 complete control, approximately 10 days, preemergence
[12] = Postemergence, 125 g ai/ha, 0 to 100 scale, 0 is no effect, 100 is complete control
[13] = preemergence, 500 g ai/ha, 0 to 100 scale, 0 is no effect and 100 is complete control
[14] = Postemergence, 31 g ai/ha, scale 0 to 100 (0 no effect, 100 complete control)
[15] = Postemergence, 62 g ai/ha, scale 0 (no effect) to 100 (complete control)
[16] = Postemergence, 125 g ai/ha, scale 0 to 100 (0 no effect, 100 complete control)
[17] = Postemergence, 250 g ai/ha, scale 0 to 100 (0 no effect, 100 complete control)
[18] = Preemergence, 31 g ai/ha, scale 0 to 100, 0 is no effect and 100 is complete control
[19] = Preemergence, 62 g ai/ha, scale 0 to 100 (0 no effect, 100 complete control)
[20] = Postemergence, 125 g ai/ha, visual rating on 0 to 100 scale (0 no effect, 100 complete control), approx. 10 days
[21] = Preemergence, 125 g ai/ha, 0 to 100 scale where 0 is no effect and 100 is complete control
[22] = Preemergence, 500 g ai/ha, visual rating on 0 to 100 scale (0 no effect, 100 complete control)
[23] = Preemergence, 125 g ai/ha, scale 0 to 100

## O=C1NCC(c2ccc(F)cc2)C1C(=O)Nc1ccccc1F (racemic) [Compound 16]
barnyardgrass; [3]
  Plant response rating, Barnyardgrass: 70
barnyardgrass; [4]
  Plant response rating, Barnyardgrass: 90
barnyardgrass; [5]
  Barnyardgrass plant response rating: 80
barnyardgrass; preemergence, 500 g ai/ha, 0 to 100 scale (0 no effect, 100 complete control)
  Plant response rating, Barnyardgrass: 90
pigweed; [3]
  Plant response rating, Pigweed: 0
pigweed; [4]
  Plant response rating, Pigweed: 0
pigweed; [5]
  Pigweed plant response rating: 0
pigweed; [6]
  Plant response rating, Pigweed: 0
Corn [1]; [3]
  Plant response rating, Corn: 0
Corn [1]; [4]
  Plant response rating, Corn: 30
Corn [1]; [5]
  Corn plant response rating: 0
Corn [1]; [6]
  Plant response rating, Corn: 30
ryegrass, Italian; [7]
  Plant response rating, Ryegrass, Italian: 0
galium; [8]
  Galium plant response rating: 0
galium; [7]
  Plant response rating, Galium: 0
Corn [2]; [8]
  Corn plant response rating: 0
Corn [2]; [7]
  Plant response rating, Corn: 0
Corn [2]; [9]
  Plant response rating, Corn: 5
Corn [2]; [10]
  Plant response rating, Corn: 10
foxtail, giant; [8]
  Foxtail, Giant plant response rating: 0
foxtail, giant; [7]
  Plant response rating, Foxtail, Giant: 70
foxtail, giant; [9]
  Plant response rating, Foxtail, Giant: 90
foxtail, giant; [10]
  Plant response rating, Foxtail, Giant: 95
ragweed; [7]
  Plant response rating, Ragweed: 0
ragweed; [9]
  Plant response rating, Ragweed: 0
soybean; [7]
  Plant response rating, Soybean: 0
soybean; [9]
  Plant response rating, Soybean: 0
oat, wild; [7]
  Plant response rating, Oat, Wild: 5
oat, wild; [9]
  Plant response rating, Oat, Wild: 15

## O=C1NCC(c2cccc(C(F)(F)F)c2)C1C(=O)Nc1ccc(F)cc1F (racemic) [Compound 207]
barnyardgrass; [11]
  Plant response rating, Barnyardgrass: 90
barnyardgrass; [12]
  Plant response rating, Barnyardgrass: 80
barnyardgrass; Postemergence, 500 g ai/ha
  Barnyardgrass plant response rating (0 to 100 scale, 0 is no effect, 100 is complete control): 90
barnyardgrass; [13]
  Plant response rating, Barnyardgrass: 90
pigweed; [11]
  Plant response rating, Pigweed: 0
pigweed; [12]
  Plant response rating, Pigweed: 0
pigweed; Postemergence, 500 g ai/ha
  Pigweed plant response rating (0 to 100 scale, 0 is no effect, 100 is complete control): 0
pigweed; [13]
  Plant response rating, Pigweed: 20
Corn [1]; [12]
  Plant response rating, Corn: 50
Corn [1]; Postemergence, 500 g ai/ha
  Corn plant response rating (0 to 100 scale, 0 is no effect, 100 is complete control): 70
ryegrass, Italian; [14]
  Plant response rating, Ryegrass, Italian: 0
ryegrass, Italian; [15]
  Plant response rating, Ryegrass, Italian: 0
ryegrass, Italian; [16]
  Plant response rating, Ryegrass, Italian: 0
ryegrass, Italian; [17]
  Plant response rating, Ryegrass, Italian: 0
ryegrass, Italian; [18]
  Ryegrass, Italian plant response rating: 0
ryegrass, Italian; [19]
  Ryegrass, Italian plant response rating: 0
ryegrass, Italian; [9]
  Plant response rating, Ryegrass, Italian: 0
ryegrass, Italian; Preemergence, 250 g ai/ha
  Plant response rating (scale of 0 to 100), Ryegrass, Italian: 0
galium; [14]
  Plant response rating, Galium: 0
galium; [15]
  Plant response rating, Galium: 0
galium; [16]
  Plant response rating, Galium: 0
galium; [17]
  Plant response rating, Galium: 50
galium; [18]
  Galium plant response rating: 0
galium; [19]
  Galium plant response rating: 0
galium; [9]
  Plant response rating, Galium: 85
galium; Preemergence, 250 g ai/ha
  Plant response rating (scale of 0 to 100), Galium: 90
Corn [2]; [14]
  Plant response rating, Corn: 0
Corn [2]; [15]
  Plant response rating, Corn: 0
Corn [2]; [16]
  Plant response rating, Corn: 0
Corn [2]; [17]
  Plant response rating, Corn: 5
Corn [2]; [18]
  Corn plant response rating: 0
Corn [2]; [19]
  Corn plant response rating: 0
Corn [2]; [9]
  Plant response rating, Corn: 55
Corn [2]; Preemergence, 250 g ai/ha
  Plant response rating (scale of 0 to 100), Corn: 30
foxtail, giant; [14]
  Plant response rating, Foxtail, Giant: 20
foxtail, giant; [15]
  Plant response rating, Foxtail, Giant: 0
foxtail, giant; [16]
  Plant response rating, Foxtail, Giant: 65
foxtail, giant; [17]
  Plant response rating, Foxtail, Giant: 75
foxtail, giant; [18]
  Foxtail, Giant plant response rating: 85
foxtail, giant; [19]
  Foxtail, Giant plant response rating: 90
foxtail, giant; [9]
  Plant response rating, Foxtail, Giant: 90
foxtail, giant; Preemergence, 250 g ai/ha
  Plant response rating (scale of 0 to 100), Foxtail, Giant: 98
ragweed; [14]
  Plant response rating, Ragweed: 0
ragweed; [15]
  Plant response rating, Ragweed: 0
ragweed; [16]
  Plant response rating, Ragweed: 0
ragweed; [17]
  Plant response rating, Ragweed: 15
ragweed; [18]
  Ragweed plant response rating: 0
ragweed; [19]
  Ragweed plant response rating: 0
ragweed; [9]
  Plant response rating, Ragweed: 0
ragweed; Preemergence, 250 g ai/ha
  Plant response rating (scale of 0 to 100), Ragweed: 5
soybean; [14]
  Plant response rating, Soybean: 0
soybean; [15]
  Plant response rating, Soybean: 5
soybean; [16]
  Plant response rating, Soybean: 5
soybean; [17]
  Plant response rating, Soybean: 5
soybean; [18]
  Soybean plant response rating: 0
soybean; [19]
  Soybean plant response rating: 0
soybean; [9]
  Plant response rating, Soybean: 0
soybean; Preemergence, 250 g ai/ha
  Plant response rating (scale of 0 to 100), Soybean: 0
oat, wild; [14]
  Plant response rating, Oat, Wild: 0
oat, wild; [15]
  Plant response rating, Oat, Wild: 0
oat, wild; [16]
  Plant response rating, Oat, Wild: 0
oat, wild; [17]
  Plant response rating, Oat, Wild: 0

## O=C1NCC(c2cccc(Br)c2)C1C(=O)Nc1ccccc1F (stereo not drawn) [Compound 307]
barnyardgrass; [20]
  Plant response rating, Barnyardgrass: 70
barnyardgrass; [4]
  Plant response rating, Barnyardgrass: 90
barnyardgrass; [21]
  Plant response rating, Barnyardgrass: 80
barnyardgrass; [22]
  Barnyardgrass plant response rating: 90
pigweed; [20]
  Plant response rating, Pigweed: 0
pigweed; [4]
  Plant response rating, Pigweed: 0
pigweed; [21]
  Plant response rating, Pigweed: 0
pigweed; [22]
  Pigweed plant response rating: 0
Corn [1]; [20]
  Plant response rating, Corn: 0
Corn [1]; [4]
  Plant response rating, Corn: 60
sedge, umbrella
  Plant response rating, Sedge, Umbrella: 0
ryegrass, Italian; [19]
  Ryegrass, Italian plant response rating: 0
ryegrass, Italian; [23]
  Plant response rating, Ryegrass, Italian: 5
ryegrass, Italian; Preemergence, 250 g ai/ha
  Plant response rating (scale of 0 to 100), Ryegrass, Italian: 10
galium; [18]
  Galium plant response rating: 0
galium; [19]
  Galium plant response rating: 0
galium; [23]
  Plant response rating, Galium: 100
galium; Preemergence, 250 g ai/ha
  Plant response rating (scale of 0 to 100), Galium: 85
Corn [2]; [18]
  Corn plant response rating: 0
Corn [2]; [19]
  Corn plant response rating: 0
Corn [2]; [23]
  Plant response rating, Corn: 40
Corn [2]; Preemergence, 250 g ai/ha
  Plant response rating (scale of 0 to 100), Corn: 40
foxtail, giant; [18]
  Foxtail, Giant plant response rating: 65
foxtail, giant; [19]
  Foxtail, Giant plant response rating: 85
foxtail, giant; [23]
  Plant response rating, Foxtail, Giant: 85
foxtail, giant; Preemergence, 250 g ai/ha
  Plant response rating (scale of 0 to 100), Foxtail, Giant: 95
ragweed; [19]
  Ragweed plant response rating: 0
ragweed; [23]
  Plant response rating, Ragweed: 0
ragweed; Preemergence, 250 g ai/ha
  Plant response rating (scale of 0 to 100), Ragweed: 35
soybean; [19]
  Soybean plant response rating: 0
soybean; [23]
  Plant response rating, Soybean: 0
soybean; Preemergence, 250 g ai/ha
  Plant response rating (scale of 0 to 100), Soybean: 0
